Reference: paper PMC7659962, “Essential Oils from Monarda fistulosa: Chemical Composition and Activation of Transient Receptor Potential A1 (TRPA1) Channels” (Molecules, 2020)

Target: T1, rTRPA1 (Rattus norvegicus, UniProt Q6RI86)
T1 construct: gene Trpa1
Experiment: Fura-2 calcium imaging in stably transfected HEK […] cells
Format: cell-based
Conditions: 100 µM; agonist; HBSS pH […]; […] ratio change from baseline; blocked by HC-030031; nontransfected HEK cells as control

T1 sequence (Q6RI86 whole entry): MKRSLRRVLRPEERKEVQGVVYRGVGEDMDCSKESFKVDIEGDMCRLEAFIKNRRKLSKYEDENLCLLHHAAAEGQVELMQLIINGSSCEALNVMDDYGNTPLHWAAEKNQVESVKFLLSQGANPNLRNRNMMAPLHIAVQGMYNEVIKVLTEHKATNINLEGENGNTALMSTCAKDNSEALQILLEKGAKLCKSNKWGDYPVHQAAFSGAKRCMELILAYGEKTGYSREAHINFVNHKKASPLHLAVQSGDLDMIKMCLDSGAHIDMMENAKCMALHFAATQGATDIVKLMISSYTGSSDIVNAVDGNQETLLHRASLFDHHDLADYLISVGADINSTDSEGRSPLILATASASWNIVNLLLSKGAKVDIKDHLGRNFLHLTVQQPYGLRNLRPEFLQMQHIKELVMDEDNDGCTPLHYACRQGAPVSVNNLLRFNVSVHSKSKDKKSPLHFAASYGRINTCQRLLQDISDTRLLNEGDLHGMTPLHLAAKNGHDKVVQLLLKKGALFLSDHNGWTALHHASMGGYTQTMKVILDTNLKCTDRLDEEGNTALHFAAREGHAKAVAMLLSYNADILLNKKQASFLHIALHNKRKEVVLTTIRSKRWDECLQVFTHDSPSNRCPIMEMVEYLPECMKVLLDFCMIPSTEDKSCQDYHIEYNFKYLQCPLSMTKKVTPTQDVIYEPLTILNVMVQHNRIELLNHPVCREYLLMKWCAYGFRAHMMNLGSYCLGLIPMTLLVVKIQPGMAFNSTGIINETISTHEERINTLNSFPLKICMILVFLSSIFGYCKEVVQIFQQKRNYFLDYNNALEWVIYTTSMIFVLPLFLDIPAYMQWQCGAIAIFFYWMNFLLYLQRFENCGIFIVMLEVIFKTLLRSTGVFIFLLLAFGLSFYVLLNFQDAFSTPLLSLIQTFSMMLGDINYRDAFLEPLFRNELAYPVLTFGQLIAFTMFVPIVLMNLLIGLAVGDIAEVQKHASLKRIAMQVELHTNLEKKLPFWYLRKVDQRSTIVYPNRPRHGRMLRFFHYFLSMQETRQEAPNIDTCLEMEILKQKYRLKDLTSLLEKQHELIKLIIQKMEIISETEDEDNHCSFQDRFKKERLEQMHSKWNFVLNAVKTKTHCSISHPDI

Row | Structure (SMILES) | HEK Cells / rTRPA1 / [Ca^2+]i Change
1 | Cc1ccc(C(C)C)cc1O [Carvacrol] | 0.340 ± 0.012
2 | Cc1ccc(C(C)C)c(O)c1 [Thymol] | 0.849 ± 0.013
3 | C=CC(=C)CCC=C(C)C [β-Myrcene] | 0.111 ± 0.003
